# According to ChEMBL document CHEMBL4177593, “Recently reported biological activities of pyrazole compounds” (Bioorg Med Chem, 2017):
# Columns and labels:
# Rattus norvegicus [1] = test: Anti inflammatory activity in Wistar rat assessed as carrageenan-induced paw edema at 10 mg/kg, po pretreated for 15 mins followed by carrageenan addition measured after 90 mins (reference value: 38.7%); assay type: functional
# MCF7 [2] = test: Antiproliferative activity against human MCF7 cells; assay type: functional, cell-based
# MCF7 [3] = test: Antiproliferative activity against human MCF7 cells after 48 hrs by MTT assay; assay type: functional, cell-based; conditions: MCF7, 48 h
# Leishmania amazonensis [4] = test: Antileishmanial activity against Leishmania amazonensis axenic amastigotes after 24 hrs; assay type: functional, organism-based
# Leishmania amazonensis [5] = test: Antileishmanial activity against Leishmania amazonensis amastigotes assessed as reduction in […] lode in late log phase after 24 hrs; assay type: functional, organism-based
# Leishmania amazonensis [6] = test: Antileishmanial activity against Leishmania amazonensis amastigotes assessed as reduction in […] lode in early log phase after 24 hrs; assay type: functional, organism-based
# [7] = tested on: Mycobacterium tuberculosis; test: Antitubercular activity against Mycobacterium tuberculosis H37Rv at 100 ug/ml by broth microdilution method relative to control; assay type: functional
# IMR-32 = test: Antiproliferative activity against human IMR32 cells after 48 hrs by SRB assay; assay type: functional, cell-based; conditions: IMR-32, 48 h
# HeLa = test: Antiproliferative activity against human HeLa cells after 48 hrs by SRB assay; assay type: functional, cell-based
# MCF7 [8] = test: Antiproliferative activity against human MCF7 cells after 48 hrs by SRB assay; assay type: functional, cell-based; conditions: MCF7, 48 h
# A549 = test: Antiproliferative activity against human A549 cells after 48 hrs by SRB assay; assay type: functional, cell-based; conditions: A549, 48 h
# Rattus norvegicus [9] = test: Ulcerogenic activity in albino rat assessed as ulcer index at 20 mg/kg, po administered daily for 3 successive days in two equal doses at 0 and 12 hrs measured at 6 hrs post last dose by magnifying lens based assay; assay type: toxicity, organism-based; conditions: in vivo
# Escherichia coli [10] = test: Antibacterial activity against Escherichia coli MTCC 443 by broth microdilution method; assay type: functional
# Pseudomonas aeruginosa = test: Antibacterial activity against Pseudomonas aeruginosa MTCC 1688; assay type: functional
# Escherichia coli [11] = test: Antibacterial activity against Escherichia coli MTCC 443; assay type: functional
# Leishmania infantum = test: Antileishmanial activity against Leishmania infantum MCAN/BR/97/P142 promastigotes after 24 hrs; assay type: functional, organism-based; conditions: MCAN/BR/97/P142, 24 h
# Leishmania amazonensis [12] = test: Antileishmanial activity against Leishmania amazonensis MHOM/BR/77/LTB0016 promastigotes after 24 hrs; assay type: functional, organism-based; conditions: MHOM/BR/77/LTB0016, 24 h
# Bacillus subtilis = test: Antibacterial activity against Bacillus subtilis MTCC 441 by broth microdilution method; assay type: functional, organism-based
# Ovis aries = species: Ovis aries; test: Selectivity index, ratio of IC50 for ovine COX1 to IC50 for ovine COX2
# Rattus norvegicus [13] = test: Anti inflammatory activity in Wistar rat assessed as inhibition of carrageenan-induced paw edema at 5 mg/kg, po pretreated for 30 mins followed by carrageenan addition measured up to 4 hrs relative to control; assay type: functional
# Staphylococcus aureus [14] = test: Antibacterial activity against Staphylococcus aureus; assay type: functional
# Rattus norvegicus [15] = test: Anti inflammatory activity in rat assessed as inhibition of carrageenan-induced hind paw edema at 50 mg/kg measured after 1 to 4 hrs by plethysmographic method relative to control; assay type: functional
# Staphylococcus aureus [16] = test: Antibacterial activity against Staphylococcus aureus MTCC 96; assay type: functional
# Streptococcus pyogenes = test: Antibacterial activity against Streptococcus pyogenes MTCC 442; assay type: functional
# [17] = Selectivity index, ratio of IC50 for rat seminal vesicles COX1 to IC50 for recombinant human COX2
# SGC-7901 = test: Antiproliferative activity against human SGC7901 cells after 48 hrs by MTT assay; assay type: functional, cell-based; conditions: SGC-7901, 48 h
# SMMC-7721 = test: Antiproliferative activity against human SMMC7721 cells after 48 hrs by MTT assay; assay type: functional, cell-based; conditions: SMMC-7721, 48 h
# B16-F10 = test: Antiproliferative activity against mouse B16F10 cells after 48 hrs by MTT assay; assay type: functional, cell-based; conditions: B16-F10, 48 h
# Leishmania amazonensis [18] = test: Antileishmanial activity against Leishmania amazonensis amastigotes after 24 hrs by MTT assay; assay type: functional, organism-based
# K562 = test: Growth inhibition in human K562 cells at 10^-5 mol/L relative to control; assay type: functional; conditions: read-out: GI
# Yarrowia lipolytica = test: Antifungal activity against Candida lipolytica after 48 hrs; assay type: functional
# Candida albicans = test: Antifungal activity against Candida albicans after 48 hrs; assay type: functional
# Fusarium oxysporum = test: Antifungal activity against Fusarium oxysporum f. sp. albedinis; assay type: functional, organism-based
compound,measurement,setting,value
CS(=O)(=O)Nc1ccc([N+](=O)[O-])cc1Oc1ccccc1 [NIMESULIDE],Activity,Rattus norvegicus [1],23.4%
CCCCCCCCCCn1nc(-c2cc(Br)ccc2Cl)c(C(N)=O)c1N,IC50,MCF7 [2],2500 nM
COc1ccc(/C=C/C(=O)OCc2cn(-c3ccccc3)nc2-c2ccc(OC)cc2)cc1,IC50,MCF7 [3],300 nM
CC(=O)N1CCN(c2ccc(OCC3COC(Cn4ccnc4)(c4ccc(Cl)cc4Cl)O3)cc2)CC1 (stereo not drawn) [KETOCONAZOLE],IC50,Leishmania amazonensis [4],164000 nM
same,IC50,Leishmania amazonensis [5],29800 nM
same,IC50,Leishmania amazonensis [6],12500 nM
CO[C@H]1/C=C/O[C@@]2(C)Oc3c(C)c(O)c4c(O)c(c(/C=N/N5CCN(C)CC5)c(O)c4c3C2=O)NC(=O)/C(C)=C\C=C\[C@H](C)[C@H](O)[C@@H](C)[C@@H](O)[C@@H](C)[C@H](OC(C)=O)[C@@H]1C [RIFAMPIN],inhibition at 100 µg/mL,[7],98%
Cc1cccc(NS(=O)(=O)c2ccccc2)c1-c1ccn(S(=O)(=O)c2ccccc2)n1,IC50,Leishmania amazonensis [4],56000 nM
same,IC50,Leishmania amazonensis [5],41300 nM
same,IC50,Leishmania amazonensis [6],6700 nM
COc1cc(/C=C/c2nnc(-c3cc(-c4ccc(Cl)cc4)n[nH]3)o2)cc(OC)c1OC,IC50,IMR-32,3200 nM
same,IC50,HeLa,2300 nM
same,IC50,MCF7 [8],1800 nM
same,IC50,A549,1500 nM
COc1ccc2c(c1)c(CC(=O)O)c(C)n2C(=O)c1ccc(Cl)cc1 [INDOMETHACIN],UI,Rattus norvegicus [9],12.82
Cc1n[nH]c(O)c1C(NNC(N)=O)c1ccc(O)cc1 (stereo not drawn),MIC,"Escherichia coli [10]; Escherichia coli, MTCC 443",0.25 µg/mL
O=c1[nH]/c(=C\c2nc3cc(Cl)ccc3s2)s/c1=C\c1cn(-c2ccccc2)nc1-c1ccc(Cl)cc1,Activity,Pseudomonas aeruginosa,200 µg/mL
same,Activity,Escherichia coli [11],100 µg/mL
Cc1nn(-c2ccc(S(=O)(=O)Nc3ccccc3)cc2)c(Cl)c1Br,IC50,Leishmania infantum,59000 nM
same,IC50,Leishmania amazonensis [12],70000 nM
CCn1cc(C(=O)O)c(=O)c2cc(F)c(N3CCNCC3)cc21 [NORFLOXACIN],IC50,Bacillus subtilis,100 µg/mL
same,MIC,Bacillus subtilis,100 µg/mL
COc1ccc(-c2cc(-c3ccccc3)nn2CC(=O)Nc2ccc(S(N)(=O)=O)cc2)cc1,Ratio IC50,Ovis aries,11.1
same,inhibition in vivo at 5 mg/kg,Rattus norvegicus [13],81%
same,UI,Rattus norvegicus [9],2.79
CN[C@@H]1[C@H](O[C@H]2[C@H](O[C@H]3[C@H](O)[C@@H](O)[C@H](N=C(N)N)[C@@H](O)[C@@H]3N=C(N)N)O[C@@H](C)[C@]2(O)C=O)O[C@@H](CO)[C@H](O)[C@H]1O [STREPTOMYCIN],Activity,Escherichia coli [10],500 µg/mL
same,Activity,Staphylococcus aureus [14],500 µg/mL
O=C(O)Cc1ccccc1Nc1c(Cl)cccc1Cl [DICLOFENAC],inhibition in vivo at 50 mg/kg,Rattus norvegicus [15],86.7%
CC1(C)S[C@@H]2[C@H](NC(=O)[C@H](N)c3ccccc3)C(=O)N2[C@H]1C(=O)O [AMPICILLIN],IC50,Bacillus subtilis,250 µg/mL
same,MIC,Bacillus subtilis,250 µg/mL
same,Activity,Staphylococcus aureus [16],200 µg/mL
same,Activity,Streptococcus pyogenes,200 µg/mL
same,Activity,Escherichia coli [11],100 µg/mL
Cc1cc(OCCOc2ccc(/C=N/c3ccccc3)cc2)n(-c2ccccc2)n1,Ratio IC50,[17],0.51
same,Activity,Rattus norvegicus [1],13.4%
N=C(N)c1ccc(OCCCCCOc2ccc(C(=N)N)cc2)cc1 [PENTAMIDINE],IC50,Leishmania infantum,62000 nM
same,IC50,Leishmania amazonensis [12],21000 nM
O=c1[nH]cc(F)c(=O)[nH]1 [FLUOROURACIL],IC50,SGC-7901,16 µg/mL
same,IC50,SMMC-7721,19.2 µg/mL
Clc1ccc(-c2cc(-c3nnc(/C=C/c4ccc5c(c4)OCO5)o3)[nH]n2)cc1Cl,IC50,IMR-32,4100 nM
same,IC50,HeLa,2800 nM
same,IC50,MCF7 [8],3900 nM
same,IC50,A549,2300 nM
C#Cc1cccc(Nc2ncnc3cc(OCCOC)c(OCCOC)cc23)c1 [ERLOTINIB],IC50,MCF7 [3],80 nM
same,IC50,B16-F10,120 nM
COc1ccc(-n2ncc(-c3nnn[nH]3)c2N)cc1,IC50,Leishmania amazonensis [18],22300 nM
CC(=O)NC1=NN(C(C)=O)C(c2cn(-c3ccccc3)nc2-c2ccc([N+](=O)[O-])cc2)S1 (stereo not drawn),inhibition in vivo at 50 mg/kg,Rattus norvegicus [15],> 84.2%
COC(=O)Nc1nc2cc(C(=O)c3cccs3)ccc2[nH]1 [NOCODAZOLE],IC50,IMR-32,1300 nM
same,IC50,HeLa,1200 nM
same,IC50,MCF7 [8],1250 nM
same,IC50,A549,900 nM
Cc1cc(C)n(C(=O)c2cc(-c3ccc(F)cc3F)ccc2O)n1,inhibition of growth at 10 µM,K562,70%
O=c1[nH]/c(=C\c2nc3cc(Cl)ccc3s2)s/c1=C\c1cn(-c2ccccc2)nc1-c1ccc(Br)cc1,Activity,Pseudomonas aeruginosa,200 µg/mL
same,Activity,Staphylococcus aureus [16],100 µg/mL
same,Activity,Streptococcus pyogenes,100 µg/mL
Cc1ccc(-c2cc(C(F)(F)F)nn2-c2ccc(S(N)(=O)=O)cc2)cc1,Ratio IC50,[17],0.0028
Cc1ccc(/N=C/c2ccc(OCCOc3cc(C)nn3-c3ccccc3)cc2)cc1,Ratio IC50,[17],0.44
same,Activity,Rattus norvegicus [1],19.4%
CC(=O)NC1=NN(C(C)=O)C(c2cn(-c3ccccc3)nc2-c2ccc(O)cc2)S1 (stereo not drawn),inhibition in vivo at 50 mg/kg,Rattus norvegicus [15],> 84.2%
COc1ccccc1C1CC(c2ccccc2)=NN1C(=N)N (stereo not drawn),MIC,Yarrowia lipolytica,15.6 to 62.5 µg/mL
same,MIC,Candida albicans,15.6 to 62.5 µg/mL
C/C(O)=C/C(=O)c1cc(C)n(C)n1,IC50,Fusarium oxysporum,55 nM
same,MIC,Fusarium oxysporum,0.055 µM
